{"source": "paper PMC6077758", "about": "“Gambogic Acid and Its Analogs Inhibit Gap Junctional Intercellular Communication” (Frontiers in Pharmacology, 2018)", "key": {"Cx43 [1]": {"tested_on": "Cx43", "assay_type": "cell-based, human", "conditions": "LN215-Cx43 cells", "description": "To assess the cellular level and S368 phosphorylation status of Cx43 on cell surfaces and in whole lysates, LN215-Cx43 cells on 100 mm culture plates were biotinylated using EZ-Link^TM Sulfo-NHS-SS-Biotin (ThermoFisher Scientific, Cat. No. 21331) according to the manufacturer’s instructions followed by lysis with PBS containing 1% Triton X-100, 1x protease inhibitor cocktail (Roche), and 1x phosphatase inhibitor cocktail (Pierce). Protein concentration was determined using a BCA assay. To collect surface proteins, 500 μg of protein was bound to 20 μL of NeutrAvidin^TM Agarose (Pierce) followed by elution with 2x Laemmli sample buffer. The surface samples and 20 μg of whole lysates were analyzed using immunoblotting as previously described ([Lee et al., 2016]). To confirm the knockout of GJA1, whole lysates were prepared without surface biotinylation. […] The protein band densities were measured using ImageJ software.\nFIGURE 5 Effect of D-GA treatment on surface expression and S368 phosphorylation of Cx43. […] The images before cropping are also presented in Supplementary Figures 1A–E. The relative phospho-S368 Cx43 band intensity, divided by the total Cx43 band intensity, is reflective of Cx43 S368-phosphorylation and was calculated and presented as bar graphs (B). […]"}, "Cx30": {"molecular_target": "T1, Cx30 (Homo sapiens, UniProt O95452)", "T1 construct": "expressed in transfected cells; host or cells: GJA1-null LN215 human glioma cells, lentiviral transduction (pLVX-CIBla-Cx30)", "T1 sequence (O95452 whole entry)": "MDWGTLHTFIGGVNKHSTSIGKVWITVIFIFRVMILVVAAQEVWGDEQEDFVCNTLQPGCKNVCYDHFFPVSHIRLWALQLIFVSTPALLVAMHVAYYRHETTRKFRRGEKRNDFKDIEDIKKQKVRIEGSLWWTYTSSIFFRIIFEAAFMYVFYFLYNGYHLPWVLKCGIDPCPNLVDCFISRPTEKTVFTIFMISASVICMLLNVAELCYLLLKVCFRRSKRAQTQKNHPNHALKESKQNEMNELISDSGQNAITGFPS", "test": "I-YFP GJIC assay, LN215-Cx30 cells", "assay_type": "cell-based", "conditions": "10 min treatment, best fit value ± standard error; read-out: IC50 for inhibition of Cx30-GJIC", "description": "(§1) GJA1-null LN215 cells were plated on a 24-well plate at 30% confluency, cultivated for 24 h, and transduced with 200 μL of conditioned medium containing lentivirus mixed with an equal volume of fresh growth medium for 15 h. The growth medium was refreshed followed by incubation for a further 72 h before selection with 2 μg/mL puromycin for one week.\n(§2) The I-YFP GJIC assay was conducted as previously reported ([Lee et al., 2015], [2016]). The scheme of the assay is as follows: donor cells express SLC26A4 as an iodide transporter to allow iodide to the influx and donate iodide to acceptor cells through GJs; the acceptor cells express YFP^QL as an iodide sensor, for which the fluorescence is rapidly and sensitively quenched by iodide transferred from donor cells. […] A POLARstar microplate reader (BMG Labtech, Ortenberg, Germany) equipped with an automated injector was utilized in the kinetic mode to read the YFP fluorescence of a well every 0.4 s for 10 s. […] The % YFP quenching and % GJIC activity were calculated from a previously reported formula ([Lee et al., 2016]). […]\n(§3) FIGURE 10 IC50 values of D-GA and CBX inhibition of GJs composed of Cx43, Cx40, or Cx30. […] The percentage of GJIC inhibition was calculated and plotted against the log [compound] […] The IC50 values were calculated using GraphPad Prism 5."}, "[2]": {"tested_on": "GJIC in LN215 glioma cells", "test": "I-YFP GJIC assay in LN215 cells", "assay_type": "cell-based, human", "conditions": "for Inhibition of GJIC (in words): treated 10 min before assay, LN215 glioma cells", "description": "The I-YFP GJIC assay was conducted as previously reported ([Lee et al., 2015], [2016]). The scheme of the assay is as follows: donor cells express SLC26A4 as an iodide transporter to allow iodide to the influx and donate iodide to acceptor cells through GJs; the acceptor cells express YFP^QL as an iodide sensor, for which the fluorescence is rapidly and sensitively quenched by iodide transferred from donor cells. A 2:1 mixture of the donor (LN215-I) and acceptor (LN215-YFP) cells were plated on 96-well plates at a density of 20,000 cells/well and grown for 24 h. After the medium was removed, the cells were treated with 100 μL of C-solution (10 mM HEPES, pH 7.4, 140 mM NaCl, 10 mM glucose, 5 mM KCl, 1 mM MgCl2, 1 mM CaCl2) containing vehicle or chemicals, as indicated. A POLARstar microplate reader (BMG Labtech, Ortenberg, Germany) equipped with an automated injector was utilized in the kinetic mode to read the YFP fluorescence of a well every 0.4 s for 10 s. An equal volume of I-solution, with the same composition as C-solution, except for the substitution of NaCl with NaI, was injected into the well 1 s after each recording was started. The % YFP quenching and % GJIC activity were calculated from a previously reported formula ([Lee et al., 2016]).\nFIGURE 2 Inhibition of GJIC by GA, D-GA, and T-GA. I-YFP GJIC assay (see Materials and Methods) was conducted using LN215-I and LN215-YFP cells. The vehicle, GA (A), D-GA (B), or T-GA (C) was diluted in C-solution and applied to cells at the concentrations indicated above for 10 min before the GJIC assay. The mean % of GJIC activity ± SD of three independent experiments is presented as bar graphs."}, "LN215 cells": {"tested_on": "LN215 cells", "test": "Measurement of DCFH oxidation (ROS)", "assay_type": "cell-based, human", "conditions": "D-GA 20 μM 10 min, H2O2 30 min", "description": "looseness1 LN215 cells were grown to confluency on 96-well plates, washed three times with C-solution, and treated with 100 μL C-solution containing 10 μM 2′–7′-dichlorodihydrofluorescein diacetate (DCFH-DA, Sigma-Aldrich) for 1 h; subsequently, the DCF fluorescence was measured. Chemical treatment was conducted during the DCFH-DA loading period. The DCF fluorescence value, which reflects cellular oxidative stress, was measured using a POLARstar microplate reader using excitation and emission wavelengths of 495 and 520, respectively.\nFIGURE 7 No ROS generation results from D-GA treatment in LN215 cells. LN215 cells were plated in 96-well plates and grown to full confluency. After washing with C-solution, the cells were loaded with 10 μM DCFH-DA diluted in C-solution for 1 h before fluorometry. H2O2 or D-GA was added after 30 min or 10 min before the measurement, respectively. The data are the mean ± SD (n = 3). ^∗p < 0.05 (Student’s t-test)."}, "Cx40": {"molecular_target": "T2, Cx40 (Homo sapiens, UniProt P36382)", "T2 construct": "expressed in transfected cells; host or cells: GJA1-null LN215 human glioma cells, lentiviral transduction (pLVX-EIBla-Cx40)", "T2 sequence (P36382 whole entry)": "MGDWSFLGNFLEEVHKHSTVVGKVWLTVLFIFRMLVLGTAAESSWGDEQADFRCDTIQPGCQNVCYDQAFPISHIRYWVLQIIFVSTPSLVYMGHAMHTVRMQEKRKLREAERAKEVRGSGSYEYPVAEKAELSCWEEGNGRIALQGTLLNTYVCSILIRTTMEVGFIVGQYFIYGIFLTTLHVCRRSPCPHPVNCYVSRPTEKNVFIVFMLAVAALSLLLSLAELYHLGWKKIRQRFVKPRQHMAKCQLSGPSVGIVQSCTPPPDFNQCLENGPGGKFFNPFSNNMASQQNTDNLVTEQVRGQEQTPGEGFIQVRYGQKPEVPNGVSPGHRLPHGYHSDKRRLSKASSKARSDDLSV", "test": "I-YFP GJIC assay, LN215-Cx40 cells", "assay_type": "cell-based", "conditions": "10 min treatment, best fit value ± standard error; read-out: IC50 for inhibition of Cx40-GJIC", "description": "as §1, §2, §3"}, "Cx43 [3]": {"molecular_target": "T3, Cx43 (Homo sapiens, UniProt P17302)", "T3 construct": "expressed in transfected cells; host or cells: GJA1-null LN215 human glioma cells, lentiviral transduction (pLVX-CIBla-Cx43)", "T3 sequence (P17302 2-382 limits assumed)": "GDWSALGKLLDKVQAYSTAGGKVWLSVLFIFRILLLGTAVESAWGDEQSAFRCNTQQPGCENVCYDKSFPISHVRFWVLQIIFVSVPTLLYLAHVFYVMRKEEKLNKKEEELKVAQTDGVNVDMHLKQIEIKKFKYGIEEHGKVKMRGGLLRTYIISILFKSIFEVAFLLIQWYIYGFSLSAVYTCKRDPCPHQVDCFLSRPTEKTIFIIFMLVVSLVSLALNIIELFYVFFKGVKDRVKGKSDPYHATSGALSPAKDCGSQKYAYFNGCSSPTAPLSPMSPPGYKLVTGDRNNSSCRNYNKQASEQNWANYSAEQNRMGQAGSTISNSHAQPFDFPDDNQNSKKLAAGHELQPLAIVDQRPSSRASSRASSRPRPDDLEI", "test": "I-YFP GJIC assay, LN215-Cx43 cells", "assay_type": "cell-based", "conditions": "10 min treatment, best fit value ± standard error; read-out: IC50 for inhibition of Cx43-GJIC", "description": "as §1, §2, §3"}, "SLC26A4": {"molecular_target": "T4, SLC26A4 (Homo sapiens, UniProt O43511)", "T4 construct": "expressed in transfected cells", "T4 sequence (O43511 1-780)": "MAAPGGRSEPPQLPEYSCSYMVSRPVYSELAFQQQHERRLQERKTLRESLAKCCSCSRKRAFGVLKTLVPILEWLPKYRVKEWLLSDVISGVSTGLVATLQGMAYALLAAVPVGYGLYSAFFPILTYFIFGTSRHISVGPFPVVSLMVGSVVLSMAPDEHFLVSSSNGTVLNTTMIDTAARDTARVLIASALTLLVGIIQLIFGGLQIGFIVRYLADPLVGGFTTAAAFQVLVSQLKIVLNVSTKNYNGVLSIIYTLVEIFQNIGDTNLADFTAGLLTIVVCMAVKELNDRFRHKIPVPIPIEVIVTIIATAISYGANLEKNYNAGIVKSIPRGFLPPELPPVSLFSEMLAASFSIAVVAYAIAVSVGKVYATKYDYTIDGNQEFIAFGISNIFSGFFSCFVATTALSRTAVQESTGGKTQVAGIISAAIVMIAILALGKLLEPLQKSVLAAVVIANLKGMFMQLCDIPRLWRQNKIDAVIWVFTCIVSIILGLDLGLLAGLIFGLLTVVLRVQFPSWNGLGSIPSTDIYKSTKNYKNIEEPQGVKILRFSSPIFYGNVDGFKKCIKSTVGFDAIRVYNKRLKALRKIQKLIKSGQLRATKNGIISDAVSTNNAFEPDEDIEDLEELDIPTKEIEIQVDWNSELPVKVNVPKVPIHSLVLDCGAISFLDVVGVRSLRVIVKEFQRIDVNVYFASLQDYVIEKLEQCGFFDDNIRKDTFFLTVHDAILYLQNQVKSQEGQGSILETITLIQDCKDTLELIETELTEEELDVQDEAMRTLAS", "test": "SLC26A4 inhibition (Supplementary Figure 4)", "assay_type": "cell-based"}}, "note": "“And” between values parts separate entries of the source, which are not always exact repeats. Equal values may be shown once."}
{"smiles": "CC(C)=CCCC1(C)C=Cc2c(O)c3c(c(CC=C(C)C)c2O1)OC12C(=CC4CC1C(C)(C)OC2(C/C=C(/C)C(=O)O)C4O)C3=O", "note": "[D-GA, dihydrogambogic acid]", "values": [{"measurement": "S368 phosphorylation of surface Cx43 vs vehicle", "setting": "Cx43 [1]; 10 min, 20 μM D-GA or 100 ng/mL PMA + 50 ng/mL EGF", "value": "did not increase S368 phosphorylation"}, {"measurement": "Cx43 level on cell surfaces", "setting": "Cx43 [1]; 20 μM D-GA 10 min or 1 μg/mL BFA + 10 μg/mL CHX 6 h", "value": "increased threefold"}, {"measurement": "IC50", "setting": "Cx30", "value": "81.1 ± 1.1", "unit": "µM"}, {"measurement": "% GJIC activity", "setting": "[2]; 20 μM for 10 min, LN215-I and LN215-YFP cells, mean ± SD", "value": "18.1% ± 15.7% and 17.6% ± 7.3%"}, {"measurement": "% GJIC activity after washing", "setting": "[2]; 20 μM for 10 min, washed, further 20 min incubation in absence of compound", "value": "91.4% ± 2.5%"}, {"measurement": "Inhibition of GJIC (in words)", "setting": "[2]", "value": "inhibited by these compounds in a dose-dependent manner"}, {"measurement": "DCF fluorescence (cellular ROS production)", "setting": "LN215 cells", "value": "did not increase DCF fluorescence"}, {"measurement": "IC50", "setting": "Cx40", "value": 5.1, "unit": "µM"}, {"measurement": "IC50", "setting": "Cx43 [3]", "value": "13.1 ± 1.1", "unit": "µM"}]}
{"smiles": "CC(C)=CCC[C@]1(C)C=Cc2c(O)c3c(c(CC=C(C)C)c2O1)O[C@]12C(=C[C@@H]4C[C@H]1C(C)(C)O[C@@]2(C/C=C(/C)C(=O)O)C4=O)C3=O", "note": "[GA, Gambogic acid]", "values": [{"measurement": "Inhibition of SLC26A4", "setting": "SLC26A4", "value": "did not inhibit SLC26A4"}, {"measurement": "Inhibition of GJIC (in words)", "setting": "[2]", "value": "inhibited by these compounds in a dose-dependent manner"}]}
{"smiles": "CC1(C)[C@@H](OC(=O)CCC(=O)O)CC[C@]2(C)[C@H]3C(=O)C=C4[C@@H]5C[C@@](C)(C(=O)O)CC[C@]5(C)CC[C@@]4(C)[C@]3(C)CC[C@@H]12", "note": "[CBX, carbenoxolone, reference compound]", "values": [{"measurement": "IC50", "setting": "Cx30", "value": "748.2 ± 1.3", "unit": "µM"}, {"measurement": "IC50", "setting": "Cx40", "value": 105, "unit": "µM"}, {"measurement": "IC50", "setting": "Cx43 [3]", "value": "5.6 ± 1.1", "unit": "µM"}]}
{"smiles": "OO", "note": "[H2O2, reference compound]", "values": [{"measurement": "DCF fluorescence (cellular ROS production)", "setting": "LN215 cells", "value": "dose-dependent increase"}]}
{"smiles": "Cc1[nH]nc(-c2cc(S(=O)(=O)NC3CCCc4ccccc43)c(C)s2)c1C", "note": "(stereo not drawn) [PDSinh-C01, reference compound]", "values": [{"measurement": "Inhibition of SLC26A4", "setting": "SLC26A4", "value": "potently inhibited"}]}
{"smiles": "CC(C)=CCCC1(C)C=Cc2c(O)c3c(c(CC=C(C)C)c2O1)OC12C(CC4CC1C(C)(C)OC2(CC=C(C)C(=O)O)C4O)C3=O", "note": "(stereo not drawn) [T-GA, tetrahydrogambogic acid]", "values": [{"measurement": "Inhibition of GJIC (in words)", "setting": "[2]", "value": "inhibited by these compounds in a dose-dependent manner"}]}
{"smiles": "CC(=O)OCOC(=O)CN(CC(=O)OCOC(C)=O)c1ccccc1OCCOc1ccccc1N(CC(=O)OCOC(C)=O)CC(=O)OCOC(C)=O", "note": "[BAPTA-AM, reference compound]", "values": [{"measurement": "Effect of pre-treatment on GJIC activity", "setting": "[2]; 5 μM BAPTA-AM 30 min, control or 20 μM D-GA-treated LN215 cells", "value": "did not change the GJIC activity"}]}
